Experimental data published in patent publication US4684664A, “Derivatives of β-(4-isocyano-1,2,3,4-diepoxycyclopentyl) acrylic acid” (Kureha Kagaku Kogyo Kabushiki Kaisha, priority 1984, dated 1987).
In brackets after ≈: the same amount, converted by molar mass.

How the values were obtained:
Assay type in all cases: cell-based
[1] = test system: Salmonella paratyphi-A 1015; experiment: Antibacterial activity, agar-dilution MIC, organism No. 10; conditions: Salmonella enterica, PARATYPHI, read-out: Minimum Inhibitory Concentration
Outline: (§1)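 Specimen is incorporated into bouillon-agar medium at graded levels and the organisms are tested on these plates. The lowest level preventing growth is taken as the MIC (μg/ml of medium).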

[2] = test system: Klebsiella pneumoniae PCI-602; experiment: Antibacterial activity, agar-dilution MIC, organism No. 7; conditions: Klebsiella pneumoniae, PCI602; Organism No. 7, bouillon-agar; read-out: Minimum Inhibitory Concentration
Outline: as §1

[3] = test system: Staphylococcus aureus FDA 209PJc-1; experiment: Antibacterial activity, agar-dilution MIC, organism No. 1; conditions: Staphylococcus aureus, FDA209PJC1; Organism No. 1, bouillon-agar; read-out: Minimum Inhibitory Concentration
Outline: as §1

[4] = test system: Salmonella enteritidis G 14; experiment: Antibacterial activity, agar-dilution MIC, organism No. 12; conditions: Salmonella enterica, ENTERITIDIS; Organism No. 12, bouillon-agar; read-out: Minimum Inhibitory Concentration
Outline: as §1

[5] = test system: Serratia marcescens IAM 1184; experiment: Antibacterial activity, agar-dilution MIC, organism No. 13; conditions: Serratia marcescens, IAM1184; Organism No. 13, bouillon-agar; read-out: Minimum Inhibitory Concentration
Outline: as §1

[6] = test system: Salmonella shottmuelleri 8006; experiment: Antibacterial activity, agar-dilution MIC, organism No. 11; conditions: Salmonella, 8006; Organism No. 11, bouillon-agar; read-out: Minimum Inhibitory Concentration
Outline: as §1

Enterobacter cloacae 963 = experiment: Antibacterial activity, agar-dilution MIC, organism No. 24; conditions: Enterobacter cloacae, 963; Organism No. 24, bouillon-agar; read-out: Minimum Inhibitory Concentration
Outline: as §1

[7] = test system: Pseudomonas aeruginosa IFO 3445; experiment: Antibacterial activity, agar-dilution MIC, organism No. 15; conditions: Pseudomonas aeruginosa, IFO3445; Organism No. 15, bouillon-agar; read-out: Minimum Inhibitory Concentration
Outline: as §1

Proteus vulgaris OX-19 = experiment: Antibacterial activity, agar-dilution MIC, organism No. 20; conditions: Proteus vulgaris, OX19; Organism No. 20, bouillon-agar; read-out: Minimum Inhibitory Concentration
Outline: as §1

[8] = test system: Staphylococcus aureus MS 353; experiment: Antibacterial activity, agar-dilution MIC, organism No. 3; conditions: Staphylococcus aureus, MS353; Organism No. 3, bouillon-agar; read-out: Minimum Inhibitory Concentration
Outline: as §1

Salmonella typhi 901 = experiment: Antibacterial activity, agar-dilution MIC, organism No. 9; conditions: Salmonella enterica, TYPHI, read-out: Minimum Inhibitory Concentration
Outline: as §1

[9] = test system: Mycoplasma pneumoniae IID817; experiment: Antimycoplasmal activity, MIC by phenol red colour change, organism No. 28; conditions: Mycoplasma, IID817; Organism No. 28, PPLO broth + 1% glucose, 37° C.; read-out: Minimum Inhibitory Concentration (MIC)
Description: Mycoplasma pneumoniae IID817 was used as the test microorganism in a culture medium prepared by adding 1% of glucose to "PPLO broth (manufactured by Difco Co.) liquid culture medium" at 37° C. with phenol red as an indicator, thereby culturing the test microorganism.

[10] = test system: Salmonella typhimurium IID 971; experiment: Antibacterial activity, agar-dilution MIC, organism No. 8; conditions: Salmonella enterica; Organism No. 8, bouillon-agar; read-out: Minimum Inhibitory Concentration
Outline: as §1

[11] = test system: Escherichia coli K12 C600 IAM 1264; experiment: Antibacterial activity, agar-dilution MIC, organism No. 6; conditions: Escherichia coli, IAM1264; Organism No. 6, bouillon-agar; read-out: Minimum Inhibitory Concentration
Outline: as §1

[12] = test system: Escherichia coli NIHJ-JC-2; experiment: Antibacterial activity, agar-dilution MIC, organism No. 5; conditions: Escherichia coli, NIHJJC2; Organism No. 5, bouillon-agar; read-out: Minimum Inhibitory Concentration
Outline: as §1

[13] = test system: Streptococcus pyogenes IFO 3340; experiment: Antibacterial activity, agar-dilution MIC, organism No. 26; conditions: Streptococcus pyogenes, IFO3340; Organism No. 26, bouillon-agar; read-out: Minimum Inhibitory Concentration
Outline: as §1

[14] = test system: Streptococcus faecium IFO 3826; experiment: Antibacterial activity, agar-dilution MIC, organism No. 27; conditions: Enterococcus faecium, IFO3826; Organism No. 27, bouillon-agar; read-out: Minimum Inhibitory Concentration
Outline: as §1

[15] = test system: Proteus rettgeri IFO 3850; experiment: Antibacterial activity, agar-dilution MIC, organism No. 22; conditions: Providencia rettgeri, IFO3850; Organism No. 22, bouillon-agar; read-out: Minimum Inhibitory Concentration
Outline: as §1

[16] = test system: Micrococcus luteus ATCC 9341; experiment: Antibacterial activity, agar-dilution MIC, organism No. 25; conditions: Micrococcus luteus, ATCC9341; Organism No. 25, bouillon-agar; read-out: Minimum Inhibitory Concentration
Outline: as §1

Proteus vulgaris HX-19 = experiment: Antibacterial activity, agar-dilution MIC, organism No. 21; conditions: Proteus vulgaris, HX19; Organism No. 21, bouillon-agar; read-out: Minimum Inhibitory Concentration
Outline: as §1

[17] = test system: Bacillus subtilis ATCC 6633; experiment: Antibacterial activity, agar-dilution MIC, organism No. 14; conditions: Bacillus subtilis, ATCC6633; Organism No. 14, bouillon-agar; read-out: Minimum Inhibitory Concentration
Outline: as §1

[18] = test system: Staphylococcus aureus Terajima; experiment: Antibacterial activity, agar-dilution MIC, organism No. 2; conditions: Staphylococcus aureus; Organism No. 2, bouillon-agar; read-out: Minimum Inhibitory Concentration
Outline: as §1

[19] = test system: Candida albicans IAM 4905; experiment: Antifungal activity, agar-dilution MIC, organism No. 29; conditions: Candida albicans, IAM4905; Organism No. 29, bouillon-agar; read-out: Minimum Inhibitory Concentration
Outline: as §1

[20] = test system: Aspergillus niger IFO 6342; experiment: Antifungal activity, agar-dilution MIC, organism No. 30; conditions: Aspergillus niger, IFO6342; Organism No. 30, bouillon-agar; read-out: Minimum Inhibitory Concentration
Outline: as §1

[21] = test system: Streptococcus pyogenes Cook; experiment: Antibacterial activity, agar-dilution MIC, organism No. 4; conditions: Streptococcus pyogenes; Organism No. 4, bouillon-agar; read-out: Minimum Inhibitory Concentration
Outline: as §1

[22] = test system: Enterobacter aerogenes ATCC 13048; experiment: Antibacterial activity, agar-dilution MIC, organism No. 23; conditions: Klebsiella aerogenes, ATCC13048; Organism No. 23, bouillon-agar; read-out: Minimum Inhibitory Concentration
Outline: as §1

[23] = test system: Proteus mirabilis IFO 3849; experiment: Antibacterial activity, agar-dilution MIC, organism No. 19; conditions: Proteus mirabilis, IFO3849; Organism No. 19, bouillon-agar; read-out: Minimum Inhibitory Concentration
Outline: as §1

[24] = test system: Pseudomonas aeruginosa PAO 1; experiment: Antibacterial activity, agar-dilution MIC, organism No. 17; conditions: Pseudomonas aeruginosa, PAO1; Organism No. 17, bouillon-agar; read-out: Minimum Inhibitory Concentration
Outline: as §1

[25] = test system: Pseudomonas aeruginosa NCTC 10490; experiment: Antibacterial activity, agar-dilution MIC, organism No. 16; conditions: Pseudomonas aeruginosa, NCTC10490; Organism No. 16, bouillon-agar; read-out: Minimum Inhibitory Concentration
Outline: as §1

[26] = test system: Proteus morganii IFO 3848; experiment: Antibacterial activity, agar-dilution MIC, organism No. 18; conditions: Morganella morganii, IFO3848; Organism No. 18, bouillon-agar; read-out: Minimum Inhibitory Concentration
Outline: as §1

SMILES | MIC [1] | MIC [2] | MIC [3] | MIC [4] | MIC [5] | MIC [6] | MIC (Enterobacter cloacae 963) | MIC [7] | MIC (Proteus vulgaris OX-19) | MIC [8] | MIC (Salmonella typhi 901) | MIC [9] | MIC [10] | MIC [11] | MIC [12] | MIC [13] | MIC [14] | MIC [15] | MIC [16] | MIC (Proteus vulgaris HX-19) | other results
[C-]#[N+]C12CC3(/C=C/C(=O)OCC(=O)c4ccc([N+](=O)[O-])cc4)OC3C1O2 (stereo not drawn) [compound 8] | 25 µg/mL (≈ 70.2 µM) | 50 µg/mL (≈ 140 µM) | 12.5 µg/mL (≈ 35.1 µM) | 12.5 µg/mL (≈ 35.1 µM) | 100 µg/mL (≈ 281 µM) | 25 µg/mL (≈ 70.2 µM) | > 100 µg/mL | > 100 µg/mL | 12.5 µg/mL (≈ 35.1 µM) | 12.5 µg/mL (≈ 35.1 µM) | 12.5 µg/mL (≈ 35.1 µM) | 1.56 µg/mL | 25 µg/mL (≈ 70.2 µM) | 25 µg/mL (≈ 70.2 µM) | 25 µg/mL (≈ 70.2 µM) | 50 µg/mL (≈ 140 µM) | 25 µg/mL (≈ 70.2 µM) | > 100 µg/mL | 12.5 µg/mL (≈ 35.1 µM) | 12.5 µg/mL (≈ 35.1 µM) | MIC [17]: 100 µg/mL (≈ 281 µM); MIC [18]: 25 µg/mL (≈ 70.2 µM); MIC [19]: 25 µg/mL (≈ 70.2 µM); MIC [20]: 100 µg/mL (≈ 281 µM); MIC [21]: 50 µg/mL (≈ 140 µM); MIC [22]: > 100 µg/mL; MIC [23]: 100 µg/mL (≈ 281 µM); MIC [24]: > 100 µg/mL; MIC [25]: > 100 µg/mL; MIC [26]: 25 µg/mL (≈ 70.2 µM)
[C-]#[N+]C12CC3(/C=C/C(=O)OCc4c(C)cc(C)cc4C)OC3C1O2 (stereo not drawn) [compound 11] | 12.5 µg/mL (≈ 38.4 µM) | 6.25 µg/mL (≈ 19.2 µM) | 3.13 µg/mL (≈ 9.62 µM) | 12.5 µg/mL (≈ 38.4 µM) | 12.5 µg/mL (≈ 38.4 µM) | 12.5 µg/mL (≈ 38.4 µM) | > 100 µg/mL | > 100 µg/mL | 6.25 µg/mL (≈ 19.2 µM) | 3.13 µg/mL (≈ 9.62 µM) | 6.25 µg/mL (≈ 19.2 µM) | < 0.2 µg/mL | 12.5 µg/mL (≈ 38.4 µM) | 25 µg/mL (≈ 76.8 µM) | 25 µg/mL (≈ 76.8 µM) | 3.13 µg/mL (≈ 9.62 µM) | 6.25 µg/mL (≈ 19.2 µM) | 12.5 µg/mL (≈ 38.4 µM) | < 0.1 µg/mL | 3.13 µg/mL (≈ 9.62 µM) | MIC [17]: 0.78 µg/mL (≈ 2.4 µM); MIC [18]: 6.25 µg/mL (≈ 19.2 µM); MIC [19]: 1.56 µg/mL (≈ 4.79 µM); MIC [20]: 6.25 µg/mL (≈ 19.2 µM); MIC [21]: 3.13 µg/mL (≈ 9.62 µM); MIC [22]: > 100 µg/mL; MIC [23]: 12.5 µg/mL (≈ 38.4 µM); MIC [24]: > 100 µg/mL; MIC [25]: > 100 µg/mL; MIC [26]: 3.13 µg/mL (≈ 9.62 µM)
[C-]#[N+]C12CC3(/C=C/C(=O)OCc4cccc(OC)c4)OC3C1O2 (stereo not drawn) [compound 12] | 3.13 µg/mL (≈ 9.99 µM) | 0.39 µg/mL (≈ 1.24 µM) | 1.56 µg/mL (≈ 4.98 µM) | 3.13 µg/mL (≈ 9.99 µM) | 12.5 µg/mL (≈ 39.9 µM) | 3.13 µg/mL (≈ 9.99 µM) | > 100 µg/mL | > 100 µg/mL | 0.78 µg/mL (≈ 2.49 µM) | 0.78 µg/mL (≈ 2.49 µM) | 3.13 µg/mL (≈ 9.99 µM) | 0.4 µg/mL | 6.25 µg/mL (≈ 19.9 µM) | 6.25 µg/mL (≈ 19.9 µM) | 6.25 µg/mL (≈ 19.9 µM) | 3.13 µg/mL (≈ 9.99 µM) | 3.13 µg/mL (≈ 9.99 µM) | > 100 µg/mL | < 0.1 µg/mL | < 0.1 µg/mL | MIC [17]: 1.56 µg/mL (≈ 4.98 µM); MIC [18]: 3.13 µg/mL (≈ 9.99 µM); MIC [19]: 1.56 µg/mL (≈ 4.98 µM); MIC [20]: 3.13 µg/mL (≈ 9.99 µM); MIC [21]: 3.13 µg/mL (≈ 9.99 µM); MIC [22]: > 100 µg/mL; MIC [23]: 3.13 µg/mL (≈ 9.99 µM); MIC [24]: > 100 µg/mL; MIC [25]: > 100 µg/mL; MIC [26]: 1.56 µg/mL (≈ 4.98 µM)
